This note sets out measurements from publication PMC12858467, “In vitro toxicokinetics and metabolic profiling of methoxycathinones and methylthiocathinones using human liver systems and hyphenated mass spectrometry” (Archives of Toxicology, 2025).

Data set [1] in a line: In vitro plasma protein binding (ultrafiltration, Centrifree). To be noted: human, pooled human blood plasma, 30 min, 37 °C, ultrafiltration. The format is in vitro ADME. As to the method:
(§1) PPB was investigated according to a previous study with minor modifications (Kroesen et al. [2025]). Fresh and pooled human blood plasma (450 µL) was spiked with 50 µL of a 5 µM methanolic solution of 4MeO-NE-BP, 4MeO-αP-BP, 4MeO-αP-VP, 4MeS-NE-BP, 4MeS-αP-BP, or 4MeS-αMor-PrP. The mixture was incubated for 30 min at 37 °C and with gentle shaking at 200 rpm. […] The Centrifree devices were centrifuged for 35 min at 1600 × g to obtain 100 µL of the ultrafiltrate (UF). […] Experiments were performed in quadruplicate. Fraction unbound (fu) and PPB were determined by comparing the area ratios of the compound and trimipramine-d3 as an internal standard in the UF and GA using the following equations:1 fu=peak area ratiocompoundUF/ISUF/peak area ratiocompoundGA/ISGA 2 PPB[\%]=1-fu∗100.

The test system of data set [2] is pooled human liver S9 fraction (pHLS9) and HepaRG cells. Kind of data set: In vitro metabolism by pHLS9 and HepaRG cells (LC-HRMS/MS metabolite identification). The class given is in vitro ADME. Conditions: 25 µM substrate.
Data set [3] relates to plasma proteins (pooled human blood plasma). Kind of data set: In vitro plasma protein binding (ultrafiltration, Centrifree). The format is in vitro ADME. To be noted: for PPB, %: 30 min, 37 °C, ultrafiltration. The protocol:
as §1

For a further data set, the target named is T1, CYP2D6 (Homo sapiens, UniProt P10635).
T1 construct: purchased Discovery Life Sciences (Huntsville, LA, USA); host or cells: baculovirus-infected insect cells (microsomes, Supersomes)
As to the kind of experiment: Monooxygenases activity screening, CYP2D6. The format is in vitro ADME. To be noted: 25 µM, 30 min, 37 °C. The protocol:
For incubations with CYP2A6 or CYP2C9, phosphate buffer was replaced with 90 mM Tris buffer, according to the manufacturer’s guideline. […] All incubations were done in duplicate and concentrations were fixed. Verapamil (25 µM) was incubated as a positive control.

The subject of the next data set is HepaRG cells. As to the kind of experiment: Incubations using HepaRG cells. To be noted: 25 µM parent, 24 h.
Setting [4] is: read-out: fu (unbound fraction).

Where two headings read alike, the source gives them in different places.

T1 sequence (P10635 whole entry): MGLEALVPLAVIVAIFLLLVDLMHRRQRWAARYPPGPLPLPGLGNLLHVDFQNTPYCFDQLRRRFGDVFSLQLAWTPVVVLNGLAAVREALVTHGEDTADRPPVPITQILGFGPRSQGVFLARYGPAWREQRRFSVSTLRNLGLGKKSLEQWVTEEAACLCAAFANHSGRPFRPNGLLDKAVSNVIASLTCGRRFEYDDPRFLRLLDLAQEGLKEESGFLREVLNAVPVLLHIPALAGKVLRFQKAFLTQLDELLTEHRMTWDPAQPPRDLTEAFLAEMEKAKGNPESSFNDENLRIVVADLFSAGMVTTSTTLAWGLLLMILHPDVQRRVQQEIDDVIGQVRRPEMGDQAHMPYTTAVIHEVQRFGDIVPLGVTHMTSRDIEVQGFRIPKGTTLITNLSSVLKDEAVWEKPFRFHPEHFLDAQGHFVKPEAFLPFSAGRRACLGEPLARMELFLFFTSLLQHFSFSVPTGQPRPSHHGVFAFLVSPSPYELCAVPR

As for `CSc1ccc(C(=O)C(C)N2CCOCC2)cc1` (stereo not shown) [4MeS-αMor-PrP, 4’-methylthio-2-morpholinopropiophenone], the fraction unbound at 30 min, 0.5 µM in data set [1] (read-out: PPB, % (converted)) was 0.14. Moreover, the fraction unbound at 30 min, 0.5 µM in data set [1] (setting [4]) was found to be 0.14. Moreover, in data set [2], the “metabolic reactions (metabolite IDs) identified” value (“metabolic reactions” below) is “S-demethylation (MT3.1), hydroxylation (MT3.2), N-oxidation (MT3.3), oxo reduction (MT3.4), lactam formation (MT3.6), N,O-bis-dealkylation (MT3.7), dehydrogenation (MT3.9), and combinations thereof”; the “number of metabolites tentatively identified” value (“number” for short) is recorded as 10.

Take `CCNC(CC)C(=O)c1ccc(OC)cc1` (stereo not shown) [Compound 4MeO-NE-BP, 4’-methoxy-N-ethylbutyrophenone]: the fraction unbound at 30 min, 0.5 µM in data set [1] (read-out: PPB, % (converted)) was greater than 0.5. The fraction unbound at 30 min, 0.5 µM in data set [1] (setting [4]) stood at 0.61. In addition, in data set [3], the “Plasma protein binding, class in words” value is listed as “low” and the “PPB, %” value is 39%. Besides, in data set [2], the “metabolic reactions” value was “O-demethylation (MO1.1), hydroxylation (MO1.2), N-dealkylation (MO1.3), hydroxylamine formation (MO1.4), and O-demethylation + sulfation (MO1.5)”; the “number” value came to 5.

Take `CCC(C(=O)c1ccc(OC)cc1)N1CCCC1` (stereo not drawn) [Compound 4MeO-αP-BP, 4’-methoxy-α-pyrrolidinobutyrophenone]: the fraction unbound at 30 min, 0.5 µM in data set [1] (read-out: PPB, % (converted)) is greater than 0.5. Further, the fraction unbound at 30 min, 0.5 µM in data set [1] (setting [4]) was determined as 0.54. In data set [3], the “Plasma protein binding, class in words” value is “low” and the “PPB, %” value was determined as 46%. Further, in data set [2], the “metabolic reactions” value is “hydroxylation (MO2.1), O-demethylation (MO2.2), N-oxidation (MO2.3), lactam formation (MO2.4), and hydroxylation + N-oxidation (MO2.5)”; the “number” value was determined as 5.

For the compound `CCNC(CC)C(=O)c1ccc(SC)cc1` (stereo not shown) [Compound 4MeS-NE-BP, 4’-methylthio-N-ethylbutyrophenone], the fraction unbound at 30 min, 0.5 µM in data set [1] (read-out: PPB, % (converted)) is 0.13. The fraction unbound at 30 min, 0.5 µM in data set [1] (setting [4]) amounted to 0.13. In data set [2], the “metabolic reactions” value was “S-demethylation (MT1.1), hydroxylation (MT1.2), N-dealkylation (MT1.3), hydroxylamine formation (MT1.4), hydroxylation + oxidation (MT1.5), N-dealkylation + S-demethylation (MT1.6), and hydroxylamine formation + hydroxylation (MT1.7)”; the “number” value turned out to be 7. Further, the “S-demethylation, only mediated by one CYP isoform” value at CYP2D6 is recorded as “CYP2D6”.

With `CCC(C(=O)c1ccc(SC)cc1)N1CCCC1` (stereo not drawn) [Compound 4MeS-αP-BP, 4’-methylthio-α-pyrrolidinobutyrophenone], the fraction unbound at 30 min, 0.5 µM in data set [1] (read-out: PPB, % (converted)) was 0.16. Besides, the fraction unbound at 30 min, 0.5 µM in data set [1] (setting [4]) amounted to 0.16. In addition, in data set [2], the “metabolic reactions” value was “S-demethylation (MT2.1), hydroxylation (MT2.2), N-oxidation (MT2.3), lactam formation (MT2.4), N,N-bis-dealkylation (MT2.5), dihydroxylation (MT2.6), S-demethylation + hydroxylation (MT2.7), and N-oxidation + hydroxylation (MT2.8)”; the “number” value came out at 8. Moreover, on CYP2D6, the “S-demethylation, only mediated by one CYP isoform” value is listed as “CYP2D6”.

Consider `CCCC(C(=O)c1ccc(OS(=O)(=O)O)cc1)N1CCCC1` (stereo not shown) [MO3.9], for which the “metabolite detection in HepaRG incubations” value in the data set on HepaRG cells is reported as “observed in HepaRG incubations”.

Consider `CCC(N)C(=O)c1ccc(SC)cc1` (stereo not shown) [MT2.5], for which the “metabolite detection in HepaRG incubations” value in the data set on HepaRG cells is reported as “only detected in HepaRG incubations”.
